The first assay deals with T1, SRPK1 (Homo sapiens, UniProt Q96SB4).
T1 construct: 0.1 µg of purified SRPK1 kinase
T1 sequence (Q96SB4 whole entry): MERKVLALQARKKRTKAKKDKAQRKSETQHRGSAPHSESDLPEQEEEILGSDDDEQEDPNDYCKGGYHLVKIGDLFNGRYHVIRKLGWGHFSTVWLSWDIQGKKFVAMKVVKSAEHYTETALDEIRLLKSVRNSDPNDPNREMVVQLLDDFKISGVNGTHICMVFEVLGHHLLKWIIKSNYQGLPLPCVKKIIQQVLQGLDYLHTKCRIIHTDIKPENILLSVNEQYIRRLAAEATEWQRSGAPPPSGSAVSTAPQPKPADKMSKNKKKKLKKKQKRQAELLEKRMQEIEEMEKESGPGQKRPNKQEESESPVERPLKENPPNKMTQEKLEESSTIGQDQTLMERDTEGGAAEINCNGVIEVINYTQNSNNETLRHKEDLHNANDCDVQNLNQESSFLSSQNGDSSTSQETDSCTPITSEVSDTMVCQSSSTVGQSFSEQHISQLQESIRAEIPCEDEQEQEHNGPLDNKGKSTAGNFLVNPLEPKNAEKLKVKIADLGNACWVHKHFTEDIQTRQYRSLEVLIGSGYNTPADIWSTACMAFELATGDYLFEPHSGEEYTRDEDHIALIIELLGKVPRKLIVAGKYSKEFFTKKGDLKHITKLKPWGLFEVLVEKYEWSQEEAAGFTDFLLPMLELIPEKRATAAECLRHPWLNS
Kind of assay: In vitro kinase assay (Kinase-Glo), SRPK1 inhibition. The assay is classed as biochemical. The settings on record: SRPK1 inhibition assay; 1 µM ATP, SRSF1 RS peptide, 30°C 10 minutes. The procedure: Candidate compounds were tested for SRPK1 inhibition using a Kinase-Glo assay (Promega, Southampton, UK32). […] Candidate compounds were serially diluted from 10 µM to 0.5 nM and added to the reaction mixture, wells with omitted SRPK1 kinase and omitted compounds were also added as controls. All wells contained 1% DMSO (Fisher Scientific, Loughborough, UK). One micromolar ATP was added, wells minus ATP were used as background controls. The plate was then incubated at 30°C for 10 minutes. An equal volume of Kinase-Glo (25 µL; Promega) was added to each well and the plate read for luminescence using a Fluostar Optima (BMG Labtech) .
What is called IC50 is the concentration needed to halve the response being measured. Higher therefore signals a need for much substance. For the compound `O=C(Nc1cc(C(F)(F)F)ccc1N1CCN(Cc2cocn2)CC1)c1ncccn1` [Compound 54, N-(2-(4-(oxazol-4-ylmethyl)piperazin-1-yl)-5-(trifluoro-methyl)phenyl)pyrimidine-2-carboxamide], the IC50 amounted to 344 nM.

With `O=C(Nc1cc(C(F)(F)F)ccc1N1CCN(Cc2ccoc2)CC1)c1ccco1` [Compound 47, N-(2-(4-(furan-3-ylmethyl)piperazin-1-yl)-5-(trifluoromethyl)phenyl)furan-2-carboxamide], it took 21.9 nM to reach half-maximal inhibition (IC50).

The compound `O=C(Nc1cc(C(F)(F)F)ccc1N1CCN(Cc2cocn2)CC1)c1nc2ccccc2o1` [Compound 55, N-(2-(4-(oxazol-4-ylmethyl)piperazin-1-yl)-5-(trifluoromethyl)phenyl)benzo[d]oxazole-2-carboxamide] gave a half-inhibitory concentration (IC50) of 1840 nM.

Take `O=C(Nc1cc(C(F)(F)F)ccc1N1CCN(Cc2cocn2)CC1)c1cc2ccccc2o1` [Compound 51, N-(2-(4-(oxazol-4-ylmethyl)piperazin-1-yl)-5-(trifluoro-methyl)-phenyl)benzofuran-2-carboxamide]: inhibition was half-maximal at 21 nM (IC50).

On to `O=C(Nc1cc(C(F)(F)F)ccc1N1CCN(Cc2cocn2)CC1)c1ccco1` [Compound 39, N-(2-(4-(oxazol-4-ylmethyl)piperazin-1-yl)-5-(trifluoro-methyl)-phenyl)furan-2-carboxamide], for which half-maximal inhibition (IC50) was put at 60.7 nM.

Compound `O=C(Nc1cc(C(F)(F)F)ccc1N1CCN(Cc2ccco2)CC1)c1ccncc1` [Compound 35, N-(2-(4-(furan-2-ylmethyl)piperazin-1-yl)-5-(trifluoromethyl)-phenyl)isonicotinamide] had an IC50 of 388 nM.

`O=C(Nc1cc(C(F)(F)F)ccc1N1CCN(Cc2cncs2)CC1)c1ccc(C2CCOCC2)o1` [Compound 70, 5-(tetrahydro-2H-pyran-4-yl)-N-(2-(4-(thiazol-5-ylmethyl)piperazin-1-yl)-5-(trifluoromethyl)phenyl)furan-2-carboxamide] came in with an IC50 of 0.5 nM.

The compound `O=C(Nc1cc(C(F)(F)F)ccc1N1CCN(Cc2cocn2)CC1)c1ccccc1` [Compound 71, N-(2-(4-(oxazol-4-ylmethyl)piperazin-1-yl)-5-(trifluoromethyl)phenyl) benzamide] displayed an IC50 of 718 nM.

`Cc1ccc(CN2CCN(c3ccc(C(F)(F)F)cc3NC(=O)c3ccc(C)o3)CC2)o1` [Compound 46, 5-methyl-N-(2-(4-((5-methylfuran-2-yl)methyl)piperazin-1-yl)-5-(trifluoromethyl)phenyl)furan-2-carboxamide] came in with an IC50 of 10.7 nM.

Regarding `Cn1ccc(CN2CCN(c3ccc(C(F)(F)F)cc3NC(=O)c3ccccn3)CC2)n1` [Compound 34, N-(2-(4-((1-methyl-1H-pyrazol-3-yl)methyl)piperazin-1-yl)-5-(trifluoromethyl)phenyl)picolinamide], the 50% inhibitory concentration (IC50) came to 27 nM.

Compound `Cc1nnc(CN2CCN(c3ccc(C(F)(F)F)cc3NC(=O)c3ccco3)CC2)o1` [Compound 49, N-(2-(4-((5-methyl-1,3,4-oxadiazol-2-yl)methyl)piperazin-1-yl)-5-(trifluoromethyl)phenyl)furan-2-carboxamide] returned an IC50 of 117 nM.

Take `Cc1ccc(CN2CCN(c3ccc(C(F)(F)F)cc3NC(=O)c3ccco3)CC2)o1` [Compound 48, N-(2-(4-((5-methylfuran-2-yl)methyl)piperazin-1-yl)-5-(trifluoromethyl)phenyl)furan-2-carboxamide]: 32.6 nM corresponded to half-maximal inhibition (IC50).

In the case of `O=C(Nc1cc(C(F)(F)F)ccc1N1CCN(Cc2cocn2)CC1)c1cnccn1` [Compound 52, N-(2-(4-(oxazol-4-ylmethyl)piperazin-1-yl)-5-(trifluoro-methyl)phenyl)pyrazine-2-carboxamide], the IC50 came out at 162 nM.

With `O=C(Nc1cc(C(F)(F)F)ccc1N1CCN(Cc2ccno2)CC1)c1ccco1` [Compound 63, N-(2-(4-(isoxazol-5-ylmethyl)piperazin-1-yl)-5-(trifluoro-methyl)phenyl)furan-2-carboxamide], inhibition was half-maximal at 317 nM (IC50).

As to `O=C(Nc1cc(C(F)(F)F)ccc1N1CCN(Cc2cocn2)CC1)c1ccc(C2CCOCC2)cn1` [Compound 59, N-(2-(4-(oxazol-4-ylmethyl)piperazin-1-yl)-5-(trifluoromethyl)phenyl)-5-(tetrahydro-2H-pyran-4-yl)picolinamide], the IC50 was determined as 974 nM.

For `O=C(Nc1cc(C(F)(F)F)ccc1N1CCN(Cc2cncs2)CC1)c1ccccn1` [Compound 32, N-(2-(4-(thiazol-5-ylmethyl)piperazin-1-yl)-5-(trifluoromethyl)phenyl)-picolinamide], 0.5 nM corresponded to half-maximal inhibition (IC50).

The compound `O=C(Nc1cc(C(F)(F)F)ccc1N1CCN(Cc2c[nH]c3ccccc23)CC1)c1ccco1` [Compound 75, N-(2-(4-((1H-indol-3-yl)methyl)piperazin-1-yl)-5-(trifluoromethyl)phenyl)furan-2-carboxamide] had an IC50 of 74.9 nM.

`O=C(Nc1cc(C(F)(F)F)ccc1N1CCN(Cc2ccoc2)CC1)c1ccccn1` [Compound 72, N-(2-(4-(furan-3-ylmethyl)piperazin-1-yl)-5-(trifluoromethyl)phenyl)picolinamide] returned an IC50 of 5.3 nM.

`O=C(Nc1cc(C(F)(F)F)ccc1N1CCN(Cc2cscn2)CC1)c1ccccn1` [Compound 31, N-(2-(4-(thiazol-4-ylmethyl)piperazin-1-yl)-5-(trifluoromethyl)phenyl)-picolinamide]: the half-maximal inhibitory concentration (IC50) amounted to 6.7 nM.

In the case of `O=C(Nc1cc(C(F)(F)F)ccc1N1CCN(Cc2cocn2)CC1)c1cocn1` [Compound 57, N-(2-(4-(oxazol-4-ylmethyl)piperazin-1-yl)-5-(trifluoro-methyl)phenyl)oxazole-4-carboxamide], the 50% inhibitory concentration (IC50) is 117 nM.

For `O=C(Nc1cc(C(F)(F)F)ccc1N1CCN(Cc2ccno2)CC1)c1ccc(C2CCOCC2)o1` [Compound 64, N-(2-(4-(isoxazol-5-ylmethyl)piperazin-1-yl)-5-(trifluoro-methyl)phenyl)-5-(tetrahydro-2H-pyran-4-yl)furan-2-carboxamide], half-maximal inhibition (IC50) was put at 5.5 nM.

`O=C(Nc1cc(C(F)(F)F)ccc1N1CCN(Cc2ccoc2)CC1)c1ccc(C2CCOCC2)o1` [Compound 43, N-(2-(4-(furan-3-ylmethyl)piperazin-1-yl)-5-(trifluoromethyl)phenyl)-5-(tetrahydro-2H-pyran-4-yl)furan-2-carboxamide] showed an IC50 of 0.7 nM.

In turn, `O=C(Nc1cc(C(F)(F)F)ccc1N1CCN(Cc2cc[nH]n2)CC1)c1ccccn1` [Compound 33, N-(2-(4-((1H-pyrazol-3-yl)methyl)piperazin-1-yl)-5-(trifluoromethyl)-phenyl)picolinamide] displayed an IC50 of 12.7 nM.

As for `Cc1ccc(CN2CCN(c3ccc(C(F)(F)F)cc3NC(=O)c3ccc(C4CCOCC4)o3)CC2)o1` [Compound 44, N-(2-(4-((5-methylfuran-2-yl)methyl)piperazin-1-yl)-5-(trifluoromethyl)phenyl)-5-(tetrahydro-2H-pyran-4-yl)furan-2-carboxamide], the IC50 came out at 3.7 nM.

For the compound `O=C(Nc1cc(C(F)(F)F)ccc1N1CCN(Cc2cocn2)CC1)c1ccncn1` [Compound 56, N-(2-(4-(oxazol-4-ylmethyl)piperazin-1-yl)-5-(trifluoro-methyl)phenyl)pyrimidine-4-carboxamide], the IC50 amounted to 134 nM.

The compound `O=C(Nc1cc(C(F)(F)F)ccc1N1CCN(Cc2cocn2)CC1)c1cc[nH]n1` [Compound 53, N-(2-(4-(oxazol-4-ylmethyl)piperazin-1-yl)-5-(trifluoro-methyl)phenyl)-1H-pyrazole-3-carboxamide] registered an IC50 of 83.1 nM.

`O=C(Nc1cc(C(F)(F)F)ccc1N1CCN(Cc2ccno2)CC1)c1ccccn1` [Compound 62, N-(2-(4-(isoxazol-5-ylmethyl)piperazin-1-yl)-5-(trifluoro-methyl)phenyl)picolinamide] yielded an IC50 of 2.8 nM.

`O=C(Nc1cc(C(F)(F)F)ccc1N1CCN(Cc2cnoc2)CC1)c1ccccn1` [Compound 67, N-(2-(4-(isoxazol-4-ylmethyl)piperazin-1-yl)-5-(trifluoro-methyl)phenyl)-picolinamide] displayed an IC50 of 8.8 nM.

Compound `Cc1ccc(CN2CCN(c3ccc(C(F)(F)F)cc3NC(=O)c3ccccn3)CC2)o1` [Compound 40, N-(2-(4-((5-methylfuran-2-yl)methyl)piperazin-1-yl)-5-(trifluoro-methyl)phenyl)picolinamide] showed an IC50 of 145 nM.

`O=C(Nc1cc(C(F)(F)F)ccc1N1CCN(Cc2cocn2)CC1)c1ccno1` [Compound 50, N-(2-(4-(oxazol-4-ylmethyl)piperazin-1-yl)-5-(trifluoro-methyl)phenyl)isoxazole-5-carboxamide] yielded an IC50 of 561 nM.

`O=C(Nc1cc(C(F)(F)F)ccc1N1CCN(Cc2c[nH]c3ccccc23)CC1)c1ccccn1` [Compound 38, N-(2-(4-((1H-indol-3-yl)methyl)piperazin-1-yl)-5-(trifluoromethyl)phenyl)picolinamide] came in with an IC50 of 31.3 nM.

For the compound `O=C(Nc1cc(C(F)(F)F)ccc1N1CCN(Cc2cocn2)CC1)c1ccccn1` [Compound 36, N-(2-(4-(oxazol-4-ylmethyl)piperazin-1-yl)-5-(trifluoromethyl)phenyl)-picolinamide], the IC50 was 21.6 nM.

Take `O=C(Nc1cc(C(F)(F)F)ccc1N1CCN(Cc2cocn2)CC1)c1ncco1` [Compound 42, N-(2-(4-(oxazol-4-ylmethyl)piperazin-1-yl)-5-(trifluoro-methyl)phenyl)oxazole-2-carboxamide]: the IC50 was found to be 1260 nM.

Take `Cc1ccc(C(=O)Nc2cc(C(F)(F)F)ccc2N2CCN(Cc3ccoc3)CC2)o1` [Compound 45, N-(2-(4-(furan-3-ylmethyl)piperazin-1-yl)-5-(trifluoromethyl)phenyl)-5-methylfuran-2-carboxamide]: the midpoint of inhibition, the IC50, lay at 1.8 nM.

Still in this assay, the particulars now being: by kinase assay or differential scanning fluorimetry; Figures 1 and 2.
Regarding `O=C(Nc1cc(C(F)(F)F)ccc1N1CCN(Cc2ccoc2)CC1)c1ccc(C2CCOCC2)o1` [Compound 43, N-(2-(4-(furan-3-ylmethyl)piperazin-1-yl)-5-(trifluoromethyl)phenyl)-5-(tetrahydro-2H-pyran-4-yl)furan-2-carboxamide], the “potency against SRPK1 relative to analogous compounds in which R3 is a pyridyl ring” value is “improved potency”.

The record behind these values is patent publication EP3362444B1, “COMPOUNDS” (Exonate Limited, priority 2015, dated 2017).
